Measurements as given in patent US20090029855A1, “Quinoline Derivatives and Their Use as Pesticides” (priority 2006, published 2009).

System: Rice Green Leaf Hoppers (Nephoteftix Virescens)
Assay: Activity against rice green leaf hoppers, foliar spray on rice plants
Format: in vivo
Conditions: 300 ppm; after 72 hours
Method: Leaf hopper and plant hoppers adults used for bioassay were obtained from a colony maintained continuously under laboratory conditions. For testing purposes, the test compound was diluted in 300 ppm (wt compound:vol diluent) in a 1:1 mixture of acetone:water, plus 0.1% EL 620 surfactant.
Hopper activity was evaluated using the foliar spray technique. Pofted rice plants (2-3 week old, Variety TN-1) were cleaned and dried prior to application. All plants were treated inside the fume hood using DeVilbiss atomizer at 25 psi with a spray volume of 5 ml/plant. To ensure uniform spray distribution, plants were placed in a rotating flat form inside the fume hood. Treated plants were then placed inside the holding room and allowed to dry for 2 hours. Each plant was caged using Mylar cages (4 inches diameter×19 inches in height) and inoculated with 10 adults hoppers. All test plants were held under continuous light and a temperature of about 28° C. for duration of the assay. Percent mortality was observed after 72 hours.

Cc1ccc(-c2ccc(S(=O)(=O)NCc3ccnc4ccccc34)cc2)c(Cl)c1 [I-32] gave a mortality of at least 75%.
